Data reported in patent US10154667B2, “Broadleaf crop control with 6-arylpicoline carboxylic acids, 2-arylpyrimidine carboxylic acids, or salts or esters thereof” (Dow AgroSciences LLC, priority 2013, dated 2018).
Like-named read-outs stand apart in the source and are kept apart here.

What was measured:
Type in all cases: in vivo, Glycine max
[1] = tested on: Maverick GLXMA (conventional soybean); assay: Greenhouse evaluation of broadleaf volunteer crop control, Maverick soybean; conditions: for pest or weed control at 1.1 g/ha / pest or weed control at 2.2 g/ha / pest or weed control at 4.4 g/ha / pest or weed control at 8.75 g/ha / pest or weed control at 17.5 g/ha: Glycine max, 504 h, read-out: Average Percent Crop Control after Treatment, Maverick GLXMA
Description: (§1) Test plants were grown in METRO-MIX® 360 (SunGro Horticulture, Bellevue, Wash.) in 132.7 square centimeters (cm^2) plastic pots for 7-21 days in a greenhouse with an approximate 15 hour (h) photoperiod which was maintained at about 23-29° C. during the day and 22-28° C. during the night. Plants were grown to the 2 to 3 leaf stage prior to applications. Both conventional soybean crops varieties, Maverick and Resnick, and herbicide resistant (HT) varieties AAD12, AAD1, and ROUNDUP® ready soybean crops were treated.
(§2) A weighed amount, determined by the highest rate to be tested, of each test compound was placed in a 25 milliliter (mL) glass vial and was dissolved in 4 mL of a 97:3 v/v (volume/volume) mixture of acetone and dimethyl sulfoxide (DMSO), which will be referred to as General Purpose Solvent (GPS), to obtain concentrated stock solutions. […] The concentrated stock solutions obtained were diluted with 20 mL of an aqueous mixture containing water, GPS, isopropyl alcohol, ATPLUS® 411F crop oil concentrate, and TRITON® X-155 surfactant in a 46:42:12:1.0:0.02 v/v ratio to obtain spray solutions containing the highest application rates. Additional application rates were obtained by serial dilution of 12 mL of the high rate solution into a solution containing 2 mL of 97:3 v/v (volume/volume) mixture of acetone and dimethyl sulfoxide (DMSO) and 10 mL of an aqueous mixture containing water, GPS, isopropyl alcohol, ATPLUS® 411F crop oil concentrate, and TRITON® X-155 surfactant in a 46:42:12:1.0:0.02 v/v ratio to obtain 1/2X, 1/4X, 1/8X and 1/16X rates of the high rate (X). Compound requirements are based upon a 12 mL application volume at a rate of 187 L/ha. Formulated compounds were applied to the plant material with an overhead Mandel track sprayer equipped with 8002E nozzles calibrated to deliver 187 L/ha over an application area of 0.503 square meters (m^2) at a spray height of 18 inches (43 cm) above the average plant canopy height. Control plants were sprayed in the same manner with the solvent blank. The treated plants and control plants were placed in a greenhouse as described above and watered by sub-irrigation to prevent wash-off of the test compounds. After 21 days, the condition of the test plants as compared with that of the control plants was determined visually and scored on a scale of 0 to 100 percent where 0 corresponds to no injury and 100 corresponds to complete kill, and results are listed in Table 1 along with active ingredients and their respective formulations. Each score in Table 1 represents an average obtained from results of three representative experiments.
(§3) Additional formulations with different 6-arylpicolinates were tested in the greenhouse on Maverick and RoundUp-ready soybean crops using the procedure described above. Each score in Table 2 represents an average obtained from results of three representative experiments.

[2] = tested on: RoundUp Ready GLXMA (HT variety soybean); assay: Greenhouse evaluation of broadleaf volunteer crop control, RoundUp ready soybean; conditions: for pest or weed control at 1.1 g/ha / pest or weed control at 2.2 g/ha / pest or weed control at 4.4 g/ha / pest or weed control at 8.75 g/ha / pest or weed control at 17.5 g/ha: Glycine max, 504 h, read-out: Average Percent Crop Control after Treatment, RoundUp Ready GLXMA
Description: as §1, §2, §3

[3] = tested on: ROUNDUP READY soybeans (GLXMA); assay: Field evaluation with various herbicides, 46 days after treatment; conditions: for % Crop Control: 46 Days After Treatment
Description: (§4) The average percent visual control of ROUNDUP READY® soybeans (GLXMA) 46 days after treatment with various herbicides with standard formulation in comparison with compound of Formula (IV) at specified rates are provided in Table 6 below. The data was the result of conducting factorial replicated field trials (4 trials) by applying the compositions at a spray pressure of 300 kPa and a spray volume of 200 L/ha. The treated plots and control plots were visually rated blind at the specified dates after application. Ratings were based on a scale of 0-100%, as discussed above, wherein 0% indicates complete growth of the undesired vegetation and 100% indicates complete prevention/eradication of the undesired vegetation.

[4] = tested on: ROUNDUP READY soybeans (GLXMA); assay: Field evaluation with various herbicides, 30 days after treatment; conditions: for % Crop Control: 30 Days After Treatment
Description: as §4, with “The” for “The average percent visual control of ROUNDUP READY® soybeans (GLXMA) 46 days after treatment with various herbicides with standard formulation in comparison with compound of Formula (IV) at specified rates are provided in Table 6 below. The”, “(3” for “(4”

[5] = 1.1 g ae/ha, greenhouse, 2 to 3 leaf stage, after 21 days, 0 no injury, 100 complete kill
[6] = 2.2 g ae/ha, greenhouse, 2 to 3 leaf stage, after 21 days, 0 no injury, 100 complete kill
[7] = 4.4 g ae/ha, greenhouse, 2 to 3 leaf stage, after 21 days, 0 no injury, 100 complete kill
[8] = 8.75 g ae/ha, greenhouse, 2 to 3 leaf stage, after 21 days, 0 no injury, 100 complete kill
[9] = 17.5 g ae/ha, greenhouse, 2 to 3 leaf stage, after 21 days, 0 no injury, 100 complete kill

## COc1c(Cl)ccc(-c2nc(C(=O)OCc3ccccc3)c(Cl)c(N)c2F)c1F
[1]
  pest or weed control at 1.1 g/ha: 100%
  pest or weed control at 2.2 g/ha: 100%
  pest or weed control at 4.4 g/ha: 100%
  pest or weed control at 8.75 g/ha: 100%
  pest or weed control at 17.5 g/ha: 100%
[2]
  pest or weed control at 1.1 g/ha: 100%
  pest or weed control at 2.2 g/ha: 100%
  pest or weed control at 4.4 g/ha: 100%
  pest or weed control at 8.75 g/ha: 100%
  pest or weed control at 17.5 g/ha: 100%

## Nc1cc(-c2ccc(Cl)cc2F)nc(C(=O)O)c1Cl
[1]; [5]
  pest or weed control at 1.1 g/ha: 100%
[1]; [6]
  pest or weed control at 2.2 g/ha: 100%
[1]; [7]
  pest or weed control at 4.4 g/ha: 100%
[1]; [8]
  pest or weed control at 8.75 g/ha: 100%
[1]; [9]
  pest or weed control at 17.5 g/ha: 100%
[2]; [5]
  pest or weed control at 1.1 g/ha: 100%
[2]; [6]
  pest or weed control at 2.2 g/ha: 100%
[2]; [7]
  pest or weed control at 4.4 g/ha: 100%
[2]; [8]
  pest or weed control at 8.75 g/ha: 100%
[2]; [9]
  pest or weed control at 17.5 g/ha: 100%

## Cc1c(Cl)ccc(-c2cc(N)c(Cl)c(C(=O)O)n2)c1F
[1]; [5]
  pest or weed control at 1.1 g/ha: 53%
[1]; [6]
  pest or weed control at 2.2 g/ha: 82%
[1]; [7]
  pest or weed control at 4.4 g/ha: 99%
[1]; [8]
  pest or weed control at 8.75 g/ha: 100%
[1]; [9]
  pest or weed control at 17.5 g/ha: 100%
[2]; [5]
  pest or weed control at 1.1 g/ha: 57%
[2]; [6]
  pest or weed control at 2.2 g/ha: 80%
[2]; [7]
  pest or weed control at 4.4 g/ha: 98%
[2]; [8]
  pest or weed control at 8.75 g/ha: 100%
[2]; [9]
  pest or weed control at 17.5 g/ha: 100%

## Cc1ccc(-c2cc(N)c(Cl)c(C(=O)O)n2)cc1
[1]; [5]
  pest or weed control at 1.1 g/ha: 100%
[1]; [6]
  pest or weed control at 2.2 g/ha: 100%
[1]; [7]
  pest or weed control at 4.4 g/ha: 100%
[1]; [8]
  pest or weed control at 8.75 g/ha: 100%
[1]; [9]
  pest or weed control at 17.5 g/ha: 100%
[2]; [5]
  pest or weed control at 1.1 g/ha: 90%
[2]; [6]
  pest or weed control at 2.2 g/ha: 100%
[2]; [7]
  pest or weed control at 4.4 g/ha: 100%
[2]; [8]
  pest or weed control at 8.75 g/ha: 100%
[2]; [9]
  pest or weed control at 17.5 g/ha: 100%

## Nc1c(F)c(-c2ccc3c(c2)OCO3)nc(C(=O)O)c1Cl
[1]; [5]
  pest or weed control at 1.1 g/ha: 27%
[1]; [6]
  pest or weed control at 2.2 g/ha: 42%
[1]; [7]
  pest or weed control at 4.4 g/ha: 58%
[1]; [8]
  pest or weed control at 8.75 g/ha: 95%
[1]; [9]
  pest or weed control at 17.5 g/ha: 100%
[2]; [5]
  pest or weed control at 1.1 g/ha: 32%
[2]; [6]
  pest or weed control at 2.2 g/ha: 45%
[2]; [7]
  pest or weed control at 4.4 g/ha: 73%
[2]; [8]
  pest or weed control at 8.75 g/ha: 92%
[2]; [9]
  pest or weed control at 17.5 g/ha: 98%

## COC(=O)c1nc(-c2ccc(Cl)cc2OC)cc(N)c1Cl
[1]; [5]
  pest or weed control at 1.1 g/ha: 98%
[1]; [6]
  pest or weed control at 2.2 g/ha: 100%
[1]; [7]
  pest or weed control at 4.4 g/ha: 100%
[1]; [8]
  pest or weed control at 8.75 g/ha: 100%
[1]; [9]
  pest or weed control at 17.5 g/ha: 100%
[2]; [5]
  pest or weed control at 1.1 g/ha: 95%
[2]; [6]
  pest or weed control at 2.2 g/ha: 99%
[2]; [7]
  pest or weed control at 4.4 g/ha: 100%
[2]; [8]
  pest or weed control at 8.75 g/ha: 100%
[2]; [9]
  pest or weed control at 17.5 g/ha: 100%

## CNC.O=C(O)COc1ccc(Cl)cc1Cl [2,4-D-dma]
[3]; 1300 g ai/Ha
  % Crop Control: 97.3%

## CC(O)CN(CC(C)O)CC(C)O.Nc1cc(Cl)nc(C(=O)O)c1Cl (stereo not shown) [Aminopyralid TIPA]
[4]; 1.25 g ai/Ha
  % Crop Control: 60%

## CCNc1nc(Cl)nc(NC(C)C)n1 [Atrazine]
[4]; 1500 g ai/Ha + 1% J'Oil
  % Crop Control: 86.7%
[4]; 1500 g ai/Ha
  % Crop Control: 75%

## O=C(O)c1nc(Cl)ccc1Cl [Clopyralid]
[3]; 54 g ai/Ha
  % Crop Control: 93.8%

## C#CCN1C(=O)COc2cc(F)c(N3C(=O)C4=C(CCCC4)C3=O)cc21 [Flumioxazin]
[3]; 25 g ai/Ha
  % Crop Control: 0%

## Nc1c(Cl)c(F)nc(OCC(=O)O)c1Cl [Fluroxypyr]
[3]; 200 g ai/Ha
  % Crop Control: 100%

## COc1c(Cl)ccc(-c2nc(C(=O)O)c(Cl)c(N)c2F)c1F [Formula (III)]
[4]; 18 g ai/Ha
  % Crop Control: 100%
[4]; RoundUp Ready soybeans
  herbicidal activity in genetically engineered crops as compared to other commercially known herbicides: comparable or superior

## COc1c(Cl)ccc(-c2cc(N)c(Cl)c(C(=O)O)n2)c1F [Formula (IV)]
[3]; 17 g ai/Ha
  % Crop Control: 93%
[3]; RoundUp Ready soybeans
  herbicidal activity in genetically engineered crops as compared to other commercially known herbicides: comparable or superior

## CCOc1cc(Oc2ccc(C(F)(F)F)cc2Cl)ccc1[N+](=O)[O-] [Oxyfluorfen]
[4]; 72 g ai/Ha
  % Crop Control: 16.7%

## COc1cnc(OC)n2nc(NS(=O)(=O)c3c(OCC(F)F)cccc3C(F)(F)F)nc12 [Penoxsulam]
[4]; 18 g ai/Ha
  % Crop Control: 87.3%

## COc1c(Cl)ccc(-c2nc(C(=O)O)c(Cl)c(N)c2F)c1F [drawing 13]
[1]; [5]
  Average Percent Crop Control after Treatment, Maverick GLXMA: 100%
[1]; [6]
  Average Percent Crop Control after Treatment, Maverick GLXMA: 100%
[1]; [7]
  Average Percent Crop Control after Treatment, Maverick GLXMA: 100%
[1]; [8]
  Average Percent Crop Control after Treatment, Maverick GLXMA: 100%
[1]; [9]
  Average Percent Crop Control after Treatment, Maverick GLXMA: 100%
[2]; [6]
  Average Percent Crop Control after Treatment, RoundUp Ready GLXMA: 100%
[2]; [7]
  Average Percent Crop Control after Treatment, RoundUp Ready GLXMA: 100%
[2]; [8]
  Average Percent Crop Control after Treatment, RoundUp Ready GLXMA: 100%
[2]; [9]
  Average Percent Crop Control after Treatment, RoundUp Ready GLXMA: 100%
[2]; [5]
  pest or weed control at 1.1 g/ha: 100%

## COc1c(Cl)ccc(-c2cc(N)c(Cl)c(C(=O)O)n2)c1F [drawing 15]
[1]; [5]
  pest or weed control at 1.1 g/ha: 100%
[1]; [6]
  pest or weed control at 2.2 g/ha: 100%
[1]; [7]
  pest or weed control at 4.4 g/ha: 100%
[1]; [8]
  pest or weed control at 8.75 g/ha: 100%
[1]; [9]
  pest or weed control at 17.5 g/ha: 100%
[2]; [5]
  pest or weed control at 1.1 g/ha: 100%
[2]; [6]
  pest or weed control at 2.2 g/ha: 100%
[2]; [7]
  pest or weed control at 4.4 g/ha: 100%
[2]; [8]
  pest or weed control at 8.75 g/ha: 100%
[2]; [9]
  pest or weed control at 17.5 g/ha: 100%

## COc1ncc(F)c2nc(S(=O)(=O)Nc3c(F)cccc3F)nn12 [florasulam]
[4]; 5 g ai/Ha + 1% J'Oil
  % Crop Control: 63.3%
